# Experiments:
# human Nav1.7 = biological target: T1, human Nav1.7 (Homo sapiens, UniProt Q15858); test: FRET assay (EFS, FDSS) on CHO cells expressing human NaV1.7 channels; type: cell-based; conditions: FRET assay, CHO cells expressing human NaV1.7; read-out: IC50 against Nav1.7
# T1 construct: expressed in transfected cells; host or cells: CHO
# Procedure: (§1) This screen was used to determine the effects of compounds on human NaV1.3, human Nav1.7, and human Nav1.5 channels, utilising electrical field stimulation (EFS) system in 96-well plate format on FDSS (Hamamatsu Photonics) platform. The change of membrane potential was monitored with FRET dye pair, oxonol (DiSBAC2(3)) and coumarin (CC2-DMPE).
# CHO cells expressing human NaV1.7 channels were grown in T225 flasks, in a 5% CO2 humidified incubator to about 80% confluence. Media composition consisted of HAM/F12 with Glutamax I, 10% FCS, 100 units/ml Penicillin and 100 microgram/ml Hygromycin.
# (§2) Protocol: • Seeded each cell lines (1×10^5 cells/well) into poly-D-lysine coated 96-well plates prior to experimentation. • Incubated at 37° C. in 5% CO2 for 24 hours. • Washed each well with assay buffer (140 mM NaCl, 4.5 mM KCl, 10 mM D-Glucose, 2 mM CaCl2, 1 mM MgCl2, 10 mM HEPES, pH 7.4 adjusted with NaOH) twice. • Added 1st loading solution containing 10 microM CC2-DMPE and 0.06% Pluronic F-127 in assay buffer. • Incubated the plate at room temperature in dark for 1 hour. • Removed 1st loading solution and added 2nd loading solution containing 15 microM DiSBAC2(3), 0.555 mM VABSC-1 and 0.004% Pluronic F-127 in assay buffer. • Placed the plate under the dark at room temperature for 25 minutes. • Added compound solutions into the assay plate. • Set the assay plate in FDSS and placed an EFS device on the plate. • Measured EFS-induced fluorescent response by FDSS.
# (§3) The data were analyzed and reported as normalized ratios of intensities measured at […]. The process of calculating these ratios was performed as follows:
# (§4) [formula] This analysis was performed using a computerized specific program designed for FDSS generated data. Fluorescence ratio values were plotted using XLfit to determine an IC50 value for each compound.
# human NaV1.3 = biological target: T2, human NaV1.3 (Homo sapiens, UniProt Q9NY46); test: FRET assay (EFS, FDSS) on HEK293 cells expressing human NaV1.3 channels; type: cell-based; conditions: FRET assay, HEK293 cells expressing human NaV1.3; read-out: IC50 against Nav1.3
# T2 construct: expressed in transfected cells; host or cells: HEK293
# T2 sequence (Q9NY46 whole entry): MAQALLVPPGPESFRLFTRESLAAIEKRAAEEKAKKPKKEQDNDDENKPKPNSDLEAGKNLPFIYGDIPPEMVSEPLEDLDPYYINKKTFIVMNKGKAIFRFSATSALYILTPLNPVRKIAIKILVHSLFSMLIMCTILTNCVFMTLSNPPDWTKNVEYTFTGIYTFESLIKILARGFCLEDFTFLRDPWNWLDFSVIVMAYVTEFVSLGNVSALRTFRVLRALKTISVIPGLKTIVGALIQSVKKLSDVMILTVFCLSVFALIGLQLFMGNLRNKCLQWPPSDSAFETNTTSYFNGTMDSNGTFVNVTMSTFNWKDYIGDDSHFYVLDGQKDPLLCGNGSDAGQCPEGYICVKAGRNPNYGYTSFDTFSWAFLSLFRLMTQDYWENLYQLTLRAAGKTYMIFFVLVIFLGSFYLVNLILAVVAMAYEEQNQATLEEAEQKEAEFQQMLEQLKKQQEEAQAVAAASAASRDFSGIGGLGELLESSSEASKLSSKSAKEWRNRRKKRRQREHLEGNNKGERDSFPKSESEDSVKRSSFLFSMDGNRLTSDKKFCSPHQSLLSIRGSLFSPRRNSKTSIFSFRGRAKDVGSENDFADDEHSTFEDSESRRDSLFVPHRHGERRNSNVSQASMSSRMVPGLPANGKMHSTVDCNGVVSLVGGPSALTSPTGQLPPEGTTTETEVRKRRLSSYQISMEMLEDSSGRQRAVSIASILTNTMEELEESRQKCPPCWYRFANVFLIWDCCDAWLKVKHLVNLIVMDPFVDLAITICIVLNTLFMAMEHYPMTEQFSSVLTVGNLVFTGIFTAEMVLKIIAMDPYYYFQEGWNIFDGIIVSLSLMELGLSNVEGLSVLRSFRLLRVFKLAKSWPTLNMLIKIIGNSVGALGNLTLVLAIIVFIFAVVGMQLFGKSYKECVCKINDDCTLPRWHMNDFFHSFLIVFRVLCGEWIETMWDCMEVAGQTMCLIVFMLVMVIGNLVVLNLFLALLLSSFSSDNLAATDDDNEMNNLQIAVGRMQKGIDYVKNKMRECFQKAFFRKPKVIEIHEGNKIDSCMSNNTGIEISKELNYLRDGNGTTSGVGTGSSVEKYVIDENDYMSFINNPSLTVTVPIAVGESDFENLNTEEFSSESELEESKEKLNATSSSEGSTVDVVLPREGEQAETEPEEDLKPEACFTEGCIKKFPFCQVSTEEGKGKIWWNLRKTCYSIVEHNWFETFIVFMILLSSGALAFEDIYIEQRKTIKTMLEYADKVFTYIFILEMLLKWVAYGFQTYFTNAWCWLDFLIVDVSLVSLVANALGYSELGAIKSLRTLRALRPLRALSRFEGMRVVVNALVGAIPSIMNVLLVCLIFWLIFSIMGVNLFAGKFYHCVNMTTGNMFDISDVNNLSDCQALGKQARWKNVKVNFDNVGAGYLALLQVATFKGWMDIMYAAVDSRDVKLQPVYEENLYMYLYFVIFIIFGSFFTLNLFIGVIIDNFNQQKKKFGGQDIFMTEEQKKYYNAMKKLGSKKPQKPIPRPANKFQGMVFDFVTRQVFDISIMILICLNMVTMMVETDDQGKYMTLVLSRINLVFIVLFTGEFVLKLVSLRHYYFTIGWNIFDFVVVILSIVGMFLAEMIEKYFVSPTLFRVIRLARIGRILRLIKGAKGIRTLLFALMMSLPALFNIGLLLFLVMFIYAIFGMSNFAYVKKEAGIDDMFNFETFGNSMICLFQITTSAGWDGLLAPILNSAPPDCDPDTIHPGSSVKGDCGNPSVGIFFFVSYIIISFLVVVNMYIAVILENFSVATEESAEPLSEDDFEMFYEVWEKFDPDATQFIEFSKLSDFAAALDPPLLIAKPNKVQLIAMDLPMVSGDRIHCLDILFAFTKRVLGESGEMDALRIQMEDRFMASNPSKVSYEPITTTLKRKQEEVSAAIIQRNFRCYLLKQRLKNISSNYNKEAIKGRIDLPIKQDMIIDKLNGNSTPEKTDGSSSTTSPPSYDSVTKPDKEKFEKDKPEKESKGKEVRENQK
# Procedure: as §1
# Each HEK293 cells expressing human NaV1.3 channels and HEK293 cells expressing human NaV1.5 channels were grown in T225 flasks, in a 5% CO2 humidified incubator to about 80% confluence. Media composition consisted of Dulbecco's Modified Eagle Medium (high glucose), 10% FCS, 100 units/ml Penicillin, 100 microgram/ml Streptomycin and 500 microgram/ml Geneticine.
# as §2, §3, §4
# T1 sequence (Q15858 whole entry): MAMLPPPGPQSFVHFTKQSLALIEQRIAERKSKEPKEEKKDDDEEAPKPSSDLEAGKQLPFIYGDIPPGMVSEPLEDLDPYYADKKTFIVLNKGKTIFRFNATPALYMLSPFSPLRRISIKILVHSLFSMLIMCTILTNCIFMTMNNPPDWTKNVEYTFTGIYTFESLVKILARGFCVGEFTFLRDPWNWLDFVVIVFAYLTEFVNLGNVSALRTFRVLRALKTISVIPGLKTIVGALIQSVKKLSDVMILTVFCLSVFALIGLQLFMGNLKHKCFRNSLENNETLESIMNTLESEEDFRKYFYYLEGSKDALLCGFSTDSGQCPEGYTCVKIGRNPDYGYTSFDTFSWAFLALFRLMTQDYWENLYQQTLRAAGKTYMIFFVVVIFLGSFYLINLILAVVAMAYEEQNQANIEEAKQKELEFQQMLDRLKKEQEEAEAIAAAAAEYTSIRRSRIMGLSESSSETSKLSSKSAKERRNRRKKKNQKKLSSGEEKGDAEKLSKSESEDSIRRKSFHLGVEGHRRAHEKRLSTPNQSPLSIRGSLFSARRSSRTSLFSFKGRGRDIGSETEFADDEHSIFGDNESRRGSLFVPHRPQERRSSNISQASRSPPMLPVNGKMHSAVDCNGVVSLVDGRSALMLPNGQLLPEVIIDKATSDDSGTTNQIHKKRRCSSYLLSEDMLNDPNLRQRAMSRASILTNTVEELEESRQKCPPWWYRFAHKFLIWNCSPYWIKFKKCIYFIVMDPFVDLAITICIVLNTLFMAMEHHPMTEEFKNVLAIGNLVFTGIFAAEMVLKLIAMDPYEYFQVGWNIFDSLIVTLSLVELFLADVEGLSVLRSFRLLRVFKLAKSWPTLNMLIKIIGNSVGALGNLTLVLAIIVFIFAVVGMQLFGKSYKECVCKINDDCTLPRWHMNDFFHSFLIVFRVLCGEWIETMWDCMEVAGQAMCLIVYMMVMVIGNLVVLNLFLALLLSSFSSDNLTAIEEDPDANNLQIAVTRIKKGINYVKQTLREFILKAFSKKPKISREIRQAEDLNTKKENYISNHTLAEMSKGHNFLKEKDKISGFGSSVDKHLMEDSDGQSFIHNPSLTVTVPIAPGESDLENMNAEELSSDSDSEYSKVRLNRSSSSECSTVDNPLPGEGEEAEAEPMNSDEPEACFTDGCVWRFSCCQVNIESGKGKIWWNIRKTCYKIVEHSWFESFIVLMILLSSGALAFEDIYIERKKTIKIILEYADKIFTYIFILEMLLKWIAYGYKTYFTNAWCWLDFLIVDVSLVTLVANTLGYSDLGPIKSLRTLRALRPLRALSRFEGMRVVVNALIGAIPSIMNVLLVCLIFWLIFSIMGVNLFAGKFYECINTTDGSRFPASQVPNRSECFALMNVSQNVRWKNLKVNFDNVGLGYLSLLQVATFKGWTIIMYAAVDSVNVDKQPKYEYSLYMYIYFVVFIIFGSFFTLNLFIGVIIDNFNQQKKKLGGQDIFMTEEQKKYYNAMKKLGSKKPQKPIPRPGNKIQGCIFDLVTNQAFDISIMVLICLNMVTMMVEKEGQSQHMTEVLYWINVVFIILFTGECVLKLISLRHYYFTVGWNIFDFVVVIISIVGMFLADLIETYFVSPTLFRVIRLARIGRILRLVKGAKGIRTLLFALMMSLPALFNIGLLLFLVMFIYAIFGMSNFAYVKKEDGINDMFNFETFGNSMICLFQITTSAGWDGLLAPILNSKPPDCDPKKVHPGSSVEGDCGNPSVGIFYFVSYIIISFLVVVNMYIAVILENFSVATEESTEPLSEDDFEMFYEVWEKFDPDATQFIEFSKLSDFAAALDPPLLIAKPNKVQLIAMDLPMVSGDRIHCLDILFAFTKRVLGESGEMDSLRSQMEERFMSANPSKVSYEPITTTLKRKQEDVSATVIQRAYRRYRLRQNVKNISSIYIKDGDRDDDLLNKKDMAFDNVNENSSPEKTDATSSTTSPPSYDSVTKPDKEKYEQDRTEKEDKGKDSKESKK
SMILES,IC50 (human Nav1.7),IC50 (human NaV1.3)
"Cc1ccc(C(=O)N2CCN(c3cc(OCC(F)(F)F)ncn3)CC2)cc1F [Example 8, 3-(fluoro-4-methylphenyl)(4-(6-(2,2,2-trifluoroethoxy)pyrimidin-4-yl)piperazin-1-yl)methanone]",< 3 µM,–
"CC(C)COc1cc(N2CCN(C(=O)[C@@H](NC(=O)OC(C)(C)C)c3ccccc3)CC2)ncn1 [Example 10, (S)-tert-butyl (2-(4-(6-isobutoxypyrimidin-4-yl)piperazin-1-yl)-2-oxo-1-phenylethyl)carbamate]",< 3 µM,–
"CC(C)COc1cc(N2CCN(C(=O)[C@@H](N)c3ccccc3)CC2)ncn1 [Example 27, (S)-2-amino-1-(4-(6-isobutoxypyrimidin-4-yl)piperazin-1-yl)-2-phenylethanone]",< 3 µM,–
"CC(C)COc1cc(N2CCN(C(=O)c3ccc4cccc(O)c4n3)CC2)ncn1 [Example 32, (8-hydroxyquinolin-2-yl)(4-(6-isobutoxypyrimidin-4-yl)piperazin-1-yl)methanone]",< 3 µM,–
"CC(C)COc1cc(N2CCN(C(=O)c3ccc(Cl)c(F)c3)CC2)ncn1 [Example 39, (4-chloro-3-fluorophenyl)(4-(6-isobutoxypyrimidin-4-yl)piperazin-1-yl)methanone]",< 3 µM,–
"CC(C)COc1cc(N2CCN(C(=O)c3ccc(C(F)(F)F)cc3O)CC2)ncn1 [Example 42, (2-hydroxy-4-(trifluoromethyl)phenyl)(4-(6-isobutoxypyrimidin-4-yl)piperazin-1-yl)methanone]",< 3 µM,–
"CC(C)COc1cc(N2CCN(C(=O)c3cc4ccccc4n3C)CC2)ncn1 [Example 43, (4-(6-isobutoxypyrimidin-4-yl)piperazin-1-yl)(1-methyl-1H-indol-2-yl)methanone]",< 3 µM,–
"CC(C)COc1cc(N2CCN(C(=O)Cc3c[nH]c4ccc(F)cc34)CC2)ncn1 [Example 60, 2-(5-fluoro-1H-indol-3-yl)-1-(4-(6-isobutoxypyrimidin-4-yl)piperazin-1-yl)ethanone]",< 3 µM,–
"O=C(c1ccc2cccc(O)c2n1)N1CCN(c2cc(OCC(F)(F)F)ncn2)CC1 [Example 65, (8-hydroxyquinolin-2-yl)(4-(6-(2,2,2-trifluoroethoxy)pyrimidin-4-yl)piperazin-1-yl)methanone]",< 3 µM,–
"CC(C)COc1cc(N2CCN(C(=O)CNC(=O)c3cccc4[nH]ccc34)CC2)ncn1 [Example 75, N-(2-(4-(6-isobutoxypyrimidin-4-yl)piperazin-1-yl)-2-oxoethyl)-1H-indole-4-carboxamide]",< 3 µM,–
"O=C(Cn1nc2ccccc2n1)N1CCN(c2cc(OC3CCC3)ncn2)CC1 [Example 220, 2-(2H-benzo[d][1,2,3]triazol-2-yl)-1-(4-(6-cyclobutoxypyrimidin-4-yl)piperazin-1-yl)ethanone]",–,< 3 µM
"CCn1nc(C(=O)N2CCN(c3cc(OCC(C)C)ncn3)CC2)cc1C(F)(F)F [Example 228, (1-ethyl-5-(trifluoromethyl)-1H-pyrazol-3-yl)(4-(6-isobutoxypyrimidin-4-yl)piperazin-1-yl)methanone]",–,< 3 µM
"CCOc1cccc(C(=O)N2CCN(c3cc(OCC(C)C)ncn3)CC2)n1 [Example 231, (6-ethoxypyridin-2-yl)(4-(6-isobutoxypyrimidn-4-yl)piperazin-1-yl)methanone]",–,< 3 µM
"CC(C)COc1cc(N2CCN(C(=O)c3cccc(OCC(F)(F)F)n3)CC2)ncn1 [Example 232, (4-(6-isobutoxypyrimidin-4-yl)piperazin-1-yl)(6-(2,2,2-trifluoroethoxy)pyridin-2-yl)methanone]",–,< 3 µM
"CC(C)COc1cc(N2CCN(C(=O)c3csc(C(C)C)n3)CC2)ncn1 [Example 233, (4-(6-isobutoxypyrimidin-4-yl)piperazin-1-yl)(2-isopropylthiazol-4-yl)methanone]",–,< 3 µM
"CCOc1cc(N2CCN(C(=O)c3csc(-c4ccccn4)n3)CC2)ncn1 [Example 241, (4-(6-ethoxypyrimidin-4-yl)piperazin-1-yl)(2-(pyridin-2-yl)thiazol-4-yl)methanone]",–,< 3 µM
